From patent US20070202047A1, “Polyamine-substituted ligands for use as contrast agents” (priority 2006, published 2007) come the findings set out here.

Structures are written as SMILES.

The nature of data set [1]: Relaxivity measurements in PBS solution. Format: physicochemical. The following applies: 37° C.; for longitudinal relaxation rate R1(Gd): 250 MHz (5.4 T); for molar chemical shift Δδ(Gd): H2O signal relative to external HDO; for molar chemical shift Δδ(Gd) / molar relaxivity r1: 250 MHz; for molar relaxivity r1: PBS. How it is done:
Relaxivity Measurements. A phosphate-buffered saline (PBS, pH 7.4) reference solution and solutions of the Gd complexes Gd-3.1. (60 mM), Gd-5.1. (60 mM), and Gd-6.1. […] Each capillary was then inserted into a standard 5-mm NMR tube containing D2O (99.96% D) for ^1H relaxation rate measurements at 250 MHz (5.4 T, Bruker AC-250 spectrometer) and 37° C. using the inversion-recovery method. The relaxation rates R1 were determined by a three-parameter nonlinear least-squares fit of the intensity data to the equation M(τ)=M0[1−2q exp(−R1τ)] with 8-11 τ values. The transverse relaxation rate R2 was estimated from the H2O signal linewidth Δν at half height (R2=πΔν). The standard error of estimate for R1 was <0.7% for all samples. The relaxivities were estimated as r1 [s^−1 mM^−1]=[R1(Gd)−R1(0)]/[Gd], where [Gd] is the concentration of Gd complex in the sample with relaxation rate R1(Gd), and R1(0) is the rate for the reference sample of PBS. Analogous calculations were made for r2 from R2.
For the ^1H relaxation rate measurements at 250 MHz (5.4 T, Bruker AC-250 spectrometer) and 37° C., sample temperature was regulated to better than ±0.1° C. using the variable temperature unit of the spectrometer. The solutions studied were placed in capillaries to reduce the sample volume and the resulting intensity of the H2O signal, thus avoiding the influences of radiation damping on the relaxation behavior. The D2O solution added to the 5-mm NMR tube provided a field/frequency lock signal and residual HDO as a reference signal. An inversion-recovery pulse sequence (RD-180°-τ-90°-acquisition) was executed with a composite 180° pulse of constant phase, four-step phase cycling of the 90° pulse (7.3 μs) for four transients, and 8-11 τ values. For each sample the list of τ values was chosen after determining the approximate τnull for the “null” point of the recovery curve by trial measurements, and the delay RD was set to at least 10τnull. The resulting spectra were phase and baseline corrected manually, and the H2O signal intensity was determined by the peak picking algorithm of the NMR software.
The relaxation rates R1 were determined by a three-parameter nonlinear least-squares fit of the intensity data to the equation M(τ)=M0[1−2q exp(−R1τ)], where q was an additional fitting parameter used to account for the quality of spin inversion. The theoretical value of q is 1.0, and the fitted values were in the range 0.92-0.95. The transverse relaxation rate R2 was estimated from the H2O signal linewidth Δν at half height (R2=πΔν), and the chemical shift Δδ(Gd) of the H2O signal from the capillary relative to the HDO signal from the external D2O was determined as an additional measure of the paramagnetism of the Gd complex. The standard error of estimate for R1was <0.7% for all samples. The relaxivities were estimated as r1 […]=[R1(Gd)−R1(0)]/[Gd], where [Gd] is the concentration of Gd complex in the sample with relaxation rate R1(Gd), and R1(0) is the rate for the reference sample of PBS. Analogous calculations were made for r2 from R2 and for Δδ(Gd).

Data set [2] in a line: Biodistribution and excretion in tumor-bearing ACI rats. Format: in vivo, rat. The following applies: for gadolinium obtained in the faeces / gadolinium obtained in the urine: 24 h after injecting. The protocol:
Animal models. For in vivo tumor studies 2×10^6 MH3924A tumor cells were injected subcutaneously into the right thigh of male ACI rats (Charles River, Sulzfeld, Germany) weighing 220 to 260 g. All animal experiments were performed in compliance with the German Animal Protection Laws (Permission 35-9185.81/G-7-03, Reg.-Praesidium, Karlsruhe, Germany).
Biodistribution and excretion data. At 14 days after tumor inoculation, when tumors had reached a diameter of ca. 5-6 mm, the biodistribution experiments were initiated. Each animal (210-250 g) was given an intravenous tail-vein injection of […] Magnevist® (Schering, Berlin, Germany) or […] of Gd-5.1. or Gd-6.1. 1 h and 24 hs post-injection (p.i.), the animals were weighed, sacrificed by cervical dislocation and dissected. Organs or tissues were blotted dry and weighed. Samples containing 100-500 mg of the tumor or organs were digested with concentrated HNO3 (Superselect; Merck, Darmstadt, Germany) and H2O2 under microwave heating with a Mars 5 apparatus (CEM GmbH, Kamp-Lintfort, Germany). To each sample 100 μL of an aqueous solution of rhodium chloride (1 μg/mL) were added so that Rh-103 could be used as an internal quantification standard. Gd-160 measurements were performed with the ICP-MS instrument mentioned above. The gadolinium concentrations were determined using standard curves created prior to tissue analyses. The results were expressed as % ID/g tissue. Urine and faeces were gathered in order to measure the excreted amount of Gd(III).

Where [3] appears, read: 1 h post i.v. injection, one ACI rat, scaled to Gd dose of 100 μmol/kg.
Setting [4] is: 24 h post i.v. injection, one ACI rat.
Where [5] appears, read: 24 h post i.v. injection, one ACI rat, scaled to Gd dose of 100 μmol/kg.

For the compound `CCN(CC)CCNC(=O)CN(CCN(CCN(CC(=O)[O-])CC(=O)N(CCN)CCN)CC(=O)[O-])CC(=O)[O-].[Gd+3]` [Gd-3.1], the “longitudinal relaxation rate R1(Gd)” value in data set [1] (60 mM in PBS) was determined as 469 ± 2 s⁻¹. Moreover, in data set [1], the “molar chemical shift Δδ(Gd)” value was determined as 0.125 ppm mM-^−1 and the “molar relaxivity r1” value worked out at 7.8 s⁻¹ mM⁻¹.

As to `NCCN(CCN)C(=O)CN(CCN(CCN(CC(=O)[O-])CC(=O)N(CCN)CCN)CC(=O)[O-])CC(=O)[O-].[Gd+3]` [Gd-5.1], in data set [2] (setting [3]), the “Gd concentration, Blood” value was 7.8 nmol/g; the “Gd concentration, Bone (femur)” value turned out to be 2.2 nmol/g; the “Gd concentration, Bone Marrow (femur)” value came to 0.8 nmol/g; the “Gd concentration, Brain” value was determined as 0.5 nmol/g. Besides, in data set [2] (setting [3]), the “Gd concentration, Kidney (+urine)” value amounted to 120.3 nmol/g; the “Gd concentration, Liver” value is 4.2 nmol/g; the “Gd concentration, Lung” value was 12.7 nmol/g; the “Gd concentration, Muscle (femur)” value is recorded as 1.6 nmol/g. Also, in data set [2] (setting [3]), the “Gd concentration, Small Intestine” value came out at 18.9 nmol/g; the “Gd concentration, Spleen” value is 4.7 nmol/g; the “Gd concentration, Tumor (MH3924A)” value is on record as 5.5 nmol/g; the “Gd concentration, Urine (cumulative)” value was determined as 2116.7 nmol/g. Besides, in data set [2] (ACI rat), the “gadolinium obtained in the faeces” value is listed as “about 1%” and the “gadolinium obtained in the urine” value was determined as 98%. The “Excretion as % of total dose” value in data set [2] (setting [4]) was determined as 98%. Besides, in data set [2] (setting [5]), the “Gd concentration, Blood” value is recorded as 0.1 nmol/g; the “Gd concentration, Bone (femur)” value is on record as 0.9 nmol/g; the “Gd concentration, Bone Marrow (femur)” value worked out at 1.7 nmol/g; the “Gd concentration, Faeces” value is reported as 16.6 nmol/g. Moreover, in data set [2] (setting [5]), the “Gd concentration, Kidney (+urine)” value was determined as 40.9 nmol/g; the “Gd concentration, Liver” value came out at 2.0 nmol/g; the “Gd concentration, Lung” value worked out at 24.2 nmol/g; the “Gd concentration, Small Intestine” value was found to be 0.4 nmol/g. Besides, in data set [2] (setting [5]), the “Gd concentration, Tumor (MH3924A)” value was found to be 0.6 nmol/g and the “Gd concentration, Urine (cumulative)” value is listed as 537.2 nmol/g. In addition, the “agent still present in the tumor” value in data set [2] (24 h post injection, MH3924A tumor, ACI rat) is on record as “about 0.020 fmol/cell”. In addition, the “preferential tissue binding (biodistribution)” value in data set [2] (ACI rat bearing MH3924A tumor, i.v.) is “binds preferentially to lung tissue and parts of the excretory system e.g. small intestine and kidneys”. Further, the “longitudinal relaxation rate R1(Gd)” value in data set [1] (60 mM in PBS) was 137.9 ± 0.2 s⁻¹. Moreover, in data set [1], the “molar chemical shift Δδ(Gd)” value was 0.045 ppm mM-^−1 and the “molar relaxivity r1” value was 2.3 s⁻¹ mM⁻¹.

Take `NCCCCN(CCCN)C(=O)CN(CCN(CCN(CC(=O)[O-])CC(=O)N(CCCN)CCCCN)CC(=O)[O-])CC(=O)[O-].[Gd+3]` [Gd-6.1]: in data set [2] (setting [3]), the “Gd concentration, Blood” value was found to be 4.8 nmol/g; the “Gd concentration, Bone (femur)” value is 3.3 nmol/g; the “Gd concentration, Bone Marrow (femur)” value amounted to 0.9 nmol/g; the “Gd concentration, Kidney (+urine)” value is recorded as 141.6 nmol/g. In data set [2] (setting [3]), the “Gd concentration, Liver” value was determined as 6.6 nmol/g; the “Gd concentration, Lung” value came out at 20.2 nmol/g; the “Gd concentration, Small Intestine” value was found to be 4.0 nmol/g; the “Gd concentration, Tumor (MH3924A)” value came to 7.2 nmol/g. In data set [2] (ACI rat), the “gadolinium obtained in the faeces” value is reported as “about 1%” and the “gadolinium obtained in the urine” value is recorded as 98%. Further, the “Excretion as % of total dose” value in data set [2] (setting [4]) is listed as 94%. Further, in data set [2] (setting [5]), the “Gd concentration, Blood” value worked out at 0.1 nmol/g; the “Gd concentration, Bone (femur)” value is recorded as 1.0 nmol/g; the “Gd concentration, Bone Marrow (femur)” value turned out to be 2.3 nmol/g; the “Gd concentration, Faeces” value was determined as 41.4 nmol/g. Also, in data set [2] (setting [5]), the “Gd concentration, Kidney (+urine)” value worked out at 62.3 nmol/g; the “Gd concentration, Liver” value is reported as 5.5 nmol/g; the “Gd concentration, Lung” value was 5.9 nmol/g; the “Gd concentration, Small Intestine” value stood at 0.1 nmol/g. Further, in data set [2] (setting [5]), the “Gd concentration, Tumor (MH3924A)” value was found to be 0.8 nmol/g and the “Gd concentration, Urine (cumulative)” value was found to be 650.9 nmol/g. In addition, the “longitudinal relaxation rate R1(Gd)” value in data set [1] (30 mM in PBS) worked out at 194.5 ± 0.9 s⁻¹. In addition, in data set [1], the “molar chemical shift Δδ(Gd)” value was 0.161 ppm mM-^−1 and the “molar relaxivity r1” value worked out at 6.5 s⁻¹ mM⁻¹.
